The source of these data is patent publication US20120202257A1, “LIGE-TYPE ENZYMES FOR BIOCONVERSION OF LIGNIN-DERIVED COMPOUNDS” (priority 2010, published 2012).

Sequences and labels used below:
B1: ligE1: N. aromaticivorans putative beta-etherase polypeptide, glutathione S-transferase-like protein, expressed in E. coli (protein)
chain: MAANNTITFYDLALSTGATISPFVWATKYALKHKGFDLDVVPGGFTGILERTGGKTERLPAIVDDGEFVLDSWGIVEYLDAKYPDRPVLIPHESVAATLKALDNWFWNAAVGPWMFCFCQDYRDLSLPQDHEYVTHSREKMLGRKLEEVQAGREERLPKISAALEPLRAALAQHQWLGGSSPNYADYRIMGGILFTASVCKTPVLANDDPLRDWIERCLDLYGGLGRHPGLFPLFGLEQREGDPDLFNRAAGQGGIYKRNTGPESTRAETQRITEGMKK
B2: ligE: S. paucimobilis beta-etherase, positive control polypeptide (protein)
chain: MARNNTITLYDLQLESGCTISPYVWRTKYALKHKGFDIDIVPGGFTGILERTGGRSERVPVIVDDGEWVLDSWVIAEYLDEKYPDRPMLFEGPTQKNLMKFLDNWLWSTAVGPWFRCYILDYHDLSLPQDRDYVRWSREQWFLGGQRLEDVQAGREDRLPLVPPTLEPFRRILAETKWLGGDQPNFADYSALAVFLWTASVARTPPLTEDDPLRDWLDRGFDLFDGLGRHPGMNPLFGLKLREGDPEPFVRQTGPAGAGGQALNKGPQTTKMPPRVAEKAD
B3: ABD27309.1: N. aromaticivorans putative beta-etherase polypeptide (protein)
chain: MDEVSLYHWEPNANSGKPMLALMEKGVPFSSHYIDMLQFDQHKPEYLAINPQGTIPAMTHNGQVLTESTAIMEYVNDRFDGPDLMPADAQDRWRVRWWMKFMDQWLGPSFSMIGWSVFVGPMVRQRDPAELAAAIDRIPLPERRTAWRKAINGDFSESEMAESRRRVGLGIAKLEEELGKRPYVGSNQYSLADINIFNSTYSLPISQPDLAGKDRTPNIMRWLKRVYTREAVKKTWAMGKTDLAHRYGLIMAEIEG
B4: ABD26530.1: N. aromaticivorans putative beta-etherase polypeptide (protein)
chain: MVIPLGEDNTIMLKLYSFGPAANSMKPLLTVFEKGLDVEKHRLDPAKFEHHTDWFKAINPRGQVPALVDGDKVVTESTVICEYLEDEYPTEVALRPADSFGKAQMRIWTKWVDEYFCWCVSTIGWHRYVGNMVKSLSDAEFEEKVKAIPVIEQQVKWRRAREGFPQDMLDEEMRKIAYSVRKLDDHLADHEWLVPGQYTLADICNFAIANGMQFGFAELVNKQDTPHLVRWIEQINERPAVKQMFAQVELEKLGPRE
B5: LigF2: N. aromaticivorans putative beta-etherase polypeptide, glutathione S-transferase-like protein (protein)
chain: MALKYYHAEPLANSLKSMVPLKEKGLAYESIYVDLHKFEQHQPWFTAINPEGQVPVLDHDGTIITHTTVINEYLEDAFPDAQPADAPLRPRDPVGAARMRYWNKFIDEHVMNYVSMHGWHRMVGVIARNIASGDFEKLLESIPLPDQRKKWATARSGFSEADLANATAKIEYALDKVEKQLGETKWLAGDTYTLADINFYSHCGAMVERMFPEMEVARRAPRLCEWRDRVAARPAVAEALKSEDRTAPGLRVWSGEVR
B6: LigF: S. paucimobilis beta-etherase, positive control polypeptide (protein)
chain: MTLKLYSFGPGANSLKPLATLYEKGLEFEQVFVDPSKFEQHSDWFKKINPRGQVPALWHDGKVVTESTVICEYLEDVFPESGNSLRPADPFKRAEMRVWTKWVDEYFCWCVSTIGWAFGIKAIAQKMSDEEFEEHINKNVPIPEQQLKWRRARNGFPQEMLDEEFRKVGVSVARLEETLSKQDYLVDTGYSLADICNFAIANGLQRPGGFFGDYVNQEKTPGLCAWLDRINARPAIKEMFEKSKREDLLKRQNEKVA

Test system in one series: not listed separately
Description: in vitro biochemical assay for beta-etherase activity on fluorescent substrate MUAV (formation of 4MU), clarified E. coli cell extracts. To be noted: E. coli cell extracts expressing the protein; reactions containing 0.1 mM MUAV substrate. The protocol: This. example describes a method for gene expression in E. coli, as well as beta-etherase biochemical assays. Expression of known and putative beta-etherase genes was performed using 5 ml cultures of the recombinant E. coli strains described herein in Luria Broth medium by induction of gene expression using isopropylthiogalactoside (IPTG) to a final concentration of 0.1 mM. Following induction, and cell harvest, the cells were disrupted using either sonication or the BPER (Invitrogen) cell lysis system.
In vitro reactions were performed in a total volume of 200 ul and contained: 25 mM TrisHCl pH 7.5; 0.5 mM dithiothreitol; 1 mM glutathione; 0.05 mM or 0.1 mM MUAV; 10 ul of clarified cell extract used to initiate the reactions. Following incubation for 2.5 hours at room temperature, a 50 ul sample of the reactions was terminated using 150 uL of 300 mM glycine/NaOH buffer pH 9. The formation of 4 methylumbelliferone (4MU) upon hydrolysis of the aryl ether bond was monitored by the increase in fluorescence at λex=360 nm and λem=450 nm using a Spectramax UV/visible/fluorescent spectrophotometer.
The total protein concentrations of the cell lysates were determined using the BCA reagent system for protein quantification (Pierce). […]
B1: the “total activity (beta-etherase)” value worked out at 529 rfu/ug.
As to B2, the “total activity (beta-etherase)” value is listed as 7 rfu/ug.

Still in this series, the particulars now being: MUAV substrate.
As to B3, the “beta-etherase activity (in words)” value is given as “beta-etherase activity”.
Same read-out and setting: the value for B1 was “much elevated beta-etherase activity”.
Still for that read-out and setting: the value for B4 was “beta-etherase activity”; that for B5 was “beta-etherase activity”.

The same series, now with this note: MUAV substrate; LigF-type proteins.
On to B6, for which the “total activity (beta-etherase)” value is listed as 558 rfu/ug.
On the same count and under the same terms, next, B5: 1206 rfu/ug.

Staying with this series, now noted: MUAV substrate; listed as ABD26841.1.
With B1, the “beta-etherase activity (in words)” value is listed as “beta-etherase activity”.

Another series deals with Saccharomyces cerevisiae.
Test: not given
The settings on record: cited from earlier work.
With `COc1ccc(C=O)cc1OC` [Veratraldehyde], the “antifungal activities against the yeast Saccharomyces cerevisiae” value (from here on “antifungal activities”) is listed as “significant antifungal activities”.
On to `O=C(O)C=Cc1ccccc1` [cinnamic acid], for which the “antifungal activities” value is “significant antifungal activities”.
Take `O=C(O)/C=C/c1cccc(O)c1` [m-coumaric acid]: the “antifungal activities” value was “significant antifungal activities”.
`O=C(O)/C=C/c1ccccc1O` [o-coumaric acid]: the “antifungal activities” value is “significant antifungal activities”.
Take `O=C(O)/C=C/c1ccc(O)cc1` [p-coumaric acid]: the “antifungal activities” value is listed as “significant antifungal activities”.
As to `COc1cc(C(=O)O)ccc1O` [vanillic acid], the “antifungal activities” value is reported as “significant antifungal activities”.
Consider `COc1cc(CCC(C)=O)ccc1O` [vanillylacetone], for which the “antifungal activities” value is “significant antifungal activities”.

The test system of another series is Escherichia coli.
Test: not given
To be noted: benzaldehyde derivatives, each demonstrated; cited from earlier work.
Take `O=Cc1ccc(O)c(O)c1O` [2,3,4-trihydroxybenzaldehyde]: the “antibacterial activity against Escherichia coli” value is recorded as “antibacterial activity”.
Turning to `O=Cc1cccc(O)c1O` [2,3-dihydroxybenzaldehyde], the “antibacterial activity against Escherichia coli” value is “antibacterial activity”.
As for `O=Cc1c(O)cc(O)cc1O` [2,4,6-trihydroxybenzaldehyde], the “antibacterial activity against Escherichia coli” value is “antibacterial activity”.
`O=Cc1ccc(O)cc1O` [2,4-dihydroxybenzaldehyde]: the “antibacterial activity against Escherichia coli” value is “antibacterial activity”.
Take `O=Cc1cc(O)ccc1O` [2,5-dihydroxybenzaldehyde]: the “antibacterial activity against Escherichia coli” value is reported as “antibacterial activity”.
`COc1cccc(C=O)c1O` [2-hydroxy-3-methoxybenzaldehyde]: the “antibacterial activity against Escherichia coli” value is “antibacterial activity”.
Regarding `COc1ccc(O)c(C=O)c1` [2-hydroxy-5-methoxybenzaldehyde], the “antibacterial activity against Escherichia coli” value was “antibacterial activity”.
Regarding `O=Cc1ccccc1O` [2-hydroxybenzaldehyde], the “antibacterial activity against Escherichia coli” value is reported as “antibacterial activity”.
Turning to `COc1cc(O)cc(OC)c1C=O` [4-hydroxy-2,6-dimethoxybenzaldehyde], the “antibacterial activity against Escherichia coli” value is “antibacterial activity”.

Still in this series, the particulars now being: each known; cited from earlier work.
With `O=Cc1ccc(O)cc1` [4-hydroxybenzaldehyde], the “antimicrobial activity against Escherichia coli” value is “antimicrobial activity”.
For the molecule `O=Cc1ccc(CO)o1` [5-hydroxymethylfurfural], the “antimicrobial activity against Escherichia coli” value is on record as “antimicrobial activity”.
`O=Cc1ccco1` [furfural]: the “antimicrobial activity against Escherichia coli” value is on record as “antimicrobial activity”.
Regarding `COc1cc(C=O)cc(OC)c1O` [syringaldehyde], the “antimicrobial activity against Escherichia coli” value is “antimicrobial activity”.
Take `COc1cc(C=O)ccc1O` [vanillin]: the “antimicrobial activity against Escherichia coli” value is reported as “antimicrobial activity”.
